According to US10308659B2, “Pyridine derivatives” (Hoffmann-La Roche Inc., priority 2013, dated 2019):
pEC50: −log10 of the molar value.

Legend:
[1] = biological target: human CB1 receptors (Homo sapiens (Human), UniProt P21554); test: cAMP assay, CHO cells expressing human CB1 receptors; format: cell-based; conditions: functional cAMP assay, CHO cells expressing human CB1; read-out: EC50 CB1 human
Protocol: (§1) CHO cells expressing human CB1 or CB2 receptors are seeded 17-24 hours prior to the experiment 50.000 cells per well in a black 96 well plate with flat clear bottom (Corning Costar #3904) in DMEM (Invitrogen No. 31331), 1×HT supplement, with 10% fetal calf serum and incubated at 5% CO2 and 37° C. in a humidified incubator. The growth medium was exchanged with Krebs Ringer Bicarbonate buffer with 1 mM IBMX and incubated at 30° C. for 30 min. Compounds were added to a final assay volume of 100 μl and incubated for 30 min at 30° C. […] The time-resolved energy transfer is measured by a TRF reader (Evotec Technologies GmbH), equipped with a ND:YAG laser as excitation source. The plate is measured twice with the excitation at 355 nm and at the emission with a delay of 100 ns and a gate of 100 ns, total exposure time 10 s at 730 (bandwidth30 nm) or 645 nm (bandwidth 75 nm), respectively. The FRET signal is calculated as follows: FRET=T730-Alexa730-P(T645-B645) with P=Ru730-B730/Ru645-B645, where T730 is the test well measured at 730 nM, T645 is the test well measured at 645 nm, B730 and B645 are the buffer controls at 730 nm and 645 nm, respectively. cAMP content is determined from the function of a standard curve spanning from 10 μM to 0.13 nM cAMP.
(§2) EC50 values were determined using Activity Base analysis (ID Business Solution, Limited).

[2] = biological target: human CB2 receptors (Homo sapiens (Human), UniProt P34972); test: cAMP assay, CHO cells expressing human CB2 receptors; format: cell-based; conditions: functional cAMP assay, CHO cells expressing human CB2; read-out: EC50 CB2 human
Chain of human CB2 receptors (P34972 whole entry): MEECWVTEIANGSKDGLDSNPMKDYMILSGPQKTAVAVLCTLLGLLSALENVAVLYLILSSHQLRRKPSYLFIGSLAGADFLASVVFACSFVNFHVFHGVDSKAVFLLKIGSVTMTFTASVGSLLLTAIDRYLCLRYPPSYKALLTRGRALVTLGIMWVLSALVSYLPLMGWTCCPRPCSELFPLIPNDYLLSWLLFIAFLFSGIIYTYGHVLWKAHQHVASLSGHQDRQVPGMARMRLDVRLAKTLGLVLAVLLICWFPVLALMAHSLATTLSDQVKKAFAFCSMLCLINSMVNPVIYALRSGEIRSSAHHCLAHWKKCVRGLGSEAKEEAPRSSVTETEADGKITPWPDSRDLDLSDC
Protocol: as §1, §2

Chain of human CB1 receptors (P21554 whole entry): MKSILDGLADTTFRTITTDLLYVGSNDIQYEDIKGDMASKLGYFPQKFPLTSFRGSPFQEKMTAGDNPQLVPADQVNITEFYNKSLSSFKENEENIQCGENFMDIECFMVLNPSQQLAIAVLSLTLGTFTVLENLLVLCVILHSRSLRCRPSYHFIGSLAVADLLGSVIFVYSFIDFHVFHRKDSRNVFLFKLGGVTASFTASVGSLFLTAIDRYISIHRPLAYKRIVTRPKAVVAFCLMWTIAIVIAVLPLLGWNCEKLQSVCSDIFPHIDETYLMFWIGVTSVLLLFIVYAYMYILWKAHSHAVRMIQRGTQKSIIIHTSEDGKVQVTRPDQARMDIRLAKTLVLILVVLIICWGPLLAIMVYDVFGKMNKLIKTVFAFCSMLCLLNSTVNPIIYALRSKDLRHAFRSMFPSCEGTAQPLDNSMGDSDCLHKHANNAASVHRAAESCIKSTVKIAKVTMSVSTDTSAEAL

Structure (SMILES) | pEC50 [1] | pEC50 [2]
C[C@@H](Oc1cc(-c2noc(C(C)(C)C)n2)ncc1C1CC1)C(F)(F)F [Example 49, 5-tert-butyl-3-[5-cyclopropyl-4-[(2R)-1,1,1-trifluoropropan-2-yl]oxypyridin-2-yl]-1,2,4-oxadiazole] | < 5.00 | 7.29
CC(C)(C)c1nc(-c2cc(OC3CCCNC3)c(C3CC3)cn2)no1 (stereo not drawn) [Example 104, 5-tert-butyl-3-(5-cyclopropyl-4-piperidin-3-yloxypyridin-2-yl)-1,2,4-oxadiazole] | < 5.00 | 7.16
CC1(COc2cc(-c3noc(C(C)(C)C)n3)ncc2C2CC2)COC1 [Example 55, 5-tert-butyl-3-[5-cyclopropyl-4-[(3-methyloxetan-3-yl)methoxy]pyridin-2-yl]-1,2,4-oxadiazole] | < 5.00 | 8.11
CC(C)(C)c1nc(-c2cc(OC3CCCOC3)c(C3CC3)cn2)no1 (stereo not drawn) [Example 88, 5-tert-butyl-3-[5-cyclopropyl-4-(oxan-3-yloxy)pyridin-2-yl]-1,2,4-oxadiazole] | < 5.00 | 7.28
CC(C)(C)c1nc(-c2cc(N3CCOCC3)c(C3CC3)cn2)no1 [Example 78, 4-[2-(5-tert-butyl-1,2,4-oxadiazol-3-yl)-5-cyclopropylpyridin-4-yl]morpholine] | < 5.00 | 7.37
C[C@H](Oc1cc(-c2noc(C3CC3)n2)ncc1C1CC1)C(F)(F)F [Example 91, 5-cyclopropyl-3-[5-cyclopropyl-4-[(2S)-1,1,1-trifluoropropan-2-yl]oxypyridin-2-yl]-1,2,4-oxadiazole] | < 5.00 | 6.19
CCc1nc(-c2cc(OCC3CC3)c(C3CC3)cn2)no1 [Example 13, 3-[5-cyclopropyl-4-(cyclopropylmethoxy)pyridin-2-yl]-5-ethyl-1,2,4-oxadiazole] | < 5.00 | 7.50
C[C@H](Oc1cc(-c2noc(C(C)(C)C)n2)ncc1C1CC1)C(F)(F)F [Example 48, 5-tert-butyl-3-[5-cyclopropyl-4-[(2S)-1,1,1-trifluoropropan-2-yl]oxypyridin-2-yl]-1,2,4-oxadiazole] | < 5.00 | 7.72
CC(C)c1nc(-c2cc(OCC(F)(F)F)c(C3CC3)cn2)no1 [Example 36, 3-[5-cyclopropyl-4-(2,2,2-trifluoroethoxy)pyridin-2-yl]-5-propan-2-yl-1,2,4-oxadiazole] | < 5.00 | 7.68
c1ccc(Cc2noc(-c3cc(OCC4CC4)c(C4CC4)cn3)n2)cc1 [Example 5, 3-benzyl-5-[5-cyclopropyl-4-(cyclopropylmethoxy)pyridin-2-yl]-1,2,4-oxadiazole] | < 5.00 | 7.16
CC(C)(C)c1noc(-c2cc(OCC(F)F)c(C3CC3)cn2)n1 [Example 123, 3-tert-butyl-5-(5-cyclopropyl-4-(2,2-difluoroethoxy)pyridin-2-yl)-1,2,4-oxadiazole] | < 5.00 | 8.70
CCC(COC)Oc1cc(-c2noc(C(C)(C)C)n2)ncc1C1CC1 (stereo not drawn) [Example 84, 5-tert-butyl-3-[5-cyclopropyl-4-(1-methoxybutan-2-yloxy)pyridin-2-yl]-1,2,4-oxadiazole] | < 5.00 | 7.30
FC(F)(F)COc1cc(-c2ncon2)ncc1C1CC1 [Example 39, 3-[5-cyclopropyl-4-(2,2,2-trifluoroethoxy)pyridin-2-yl]-1,2,4-oxadiazole] | < 5.00 | 6.36
C[C@H](Oc1cc(-c2nc(C(C)(C)C)no2)ncc1C1CC1)C(F)(F)F [Example 52, 3-tert-butyl-5-[5-cyclopropyl-4-[(2S)-1,1,1-trifluoropropan-2-yl]oxypyridin-2-yl]-1,2,4-oxadiazole] | < 5.00 | 7.88
FC(F)(F)COc1cc(-c2noc(C3CC3)n2)ncc1C1CC1 [Example 72, 5-cyclopropyl-3-[5-cyclopropyl-4-(2,2,2-trifluoroethoxy)pyridin-2-yl]-1,2,4-oxadiazole] | < 5.00 | 7.34
CC(C)(C)c1nc(-c2cc(N3CCC(F)(F)C3)c(C3CC3)cn2)no1 [Example 77, 5-tert-butyl-3-[5-cyclopropyl-4-(3,3-difluoropyrrolidin-1-yl)pyridin-2-yl]-1,2,4-oxadiazole] | < 5.00 | 8.68
CC(C)(C)c1nc(-c2cc(OCC(F)(F)F)c(S(C)(=O)=O)cn2)no1 [Example 67, 5-tert-butyl-3-[5-methylsulfonyl-4-(2,2,2-trifluoroethoxy)pyridin-2-yl]-1,2,4-oxadiazole] | < 5.00 | 6.36

Structure (SMILES) | pEC50 [1] | pEC50 [2]
CC(C)(C)c1nc(-c2cc(OCc3ccc(F)cn3)c(C3CC3)cn2)no1 [Example 118, 5-tert-butyl-3-[5-cyclopropyl-4-[(5-fluoropyridin-2-yl)methoxy]pyridin-2-yl]-1,2,4-oxadiazole] | < 5.00 | 7.46
CC(C)(C)c1nc(-c2cc(Oc3ccc(S(C)(=O)=O)cc3)c(C3CC3)cn2)no1 [Example 75, 5-tert-butyl-3-[5-cyclopropyl-4-(4-methylsulfonylphenoxy)pyridin-2-yl]-1,2,4-oxadiazole] | < 5.00 | 6.54
CCC1(CC)COC(c2cc(OCC(F)(F)F)c(C3CC3)cn2)=N1 [Example 27, 2-[5-cyclopropyl-4-(2,2,2-trifluoroethoxy)pyridin-2-yl]-4,4-diethyl-5H-1,3-oxazole] | < 5.00 | 8.46
CC(C)(C)c1nc(-c2cc(OC3CCOCC3)c(C3CC3)cn2)no1 [Example 63, 5-tert-butyl-3-[5-cyclopropyl-4-(oxan-4-yloxy)pyridin-2-yl]-1,2,4-oxadiazole] | < 5.00 | 8.37
CN1CCC(Oc2cc(-c3noc(C(C)(C)C)n3)ncc2C2CC2)C1 (stereo not drawn) [Example 59, 5-tert-butyl-3-[5-cyclopropyl-4-(1-methylpyrrolidin-3-yl)oxypyridin-2-yl]-1,2,4-oxadiazole] | < 5.00 | 7.32
c1ccc(-c2noc(-c3cc(OCC4CC4)c(C4CC4)cn3)n2)cc1 [Example 2, 5-[5-cyclopropyl-4-(cyclopropylmethoxy)pyridin-2-yl]-3-phenyl-1,2,4-oxadiazole] | < 5.00 | 7.64
CCC1(CC)COC(c2cc(OCC(F)(F)F)c(N3CC(F)(F)C3)cn2)=N1 [Example 30, 2-[5-(3,3-difluoroazetidin-1-yl)-4-(2,2,2-trifluoroethoxy)pyridin-2-yl]-4,4-diethyl-5H-1,3-oxazole] | < 5.00 | 8.59
c1c(-c2nc(C3CCCC3)no2)ncc(C2CC2)c1OCC1CC1 [Example 4, 3-cyclopentyl-5-[5-cyclopropyl-4-(cyclopropylmethoxy)pyridin-2-yl]-1,2,4-oxadiazole] | < 5.00 | 8.68
Cc1noc(-c2cc(OCC(F)(F)F)c(N3CC(F)(F)C3)cn2)n1 [Example 16, 5-[5-(3,3-difluoroazetidin-1-yl)-4-(2,2,2-trifluoroethoxy)pyridin-2-yl]-3-methyl-1,2,4-oxadiazole] | < 5.00 | 6.47
CC(C)(C)c1nc(-c2cc(OCC3CC3)c(S(C)(=O)=O)cn2)no1 [Example 43, 5-tert-butyl-3-[4-(cyclopropylmethoxy)-5-methylsulfonylpyridin-2-yl]-1,2,4-oxadiazole] | < 5.00 | 7.39
OC1(c2nc(-c3cc(OCC4CC4)c(C4CC4)cn3)no2)CC1 [Example 23, 1-[3-[5-cyclopropyl-4-(cyclopropylmethoxy)pyridin-2-yl]-1,2,4-oxadiazol-5-yl]cyclopropan-1-ol] | < 5.00 | 7.45
CN1CCCCC1COc1cc(-c2noc(C(C)(C)C)n2)ncc1C1CC1 (stereo not drawn) [Example 97, 5-tert-butyl-3-[5-cyclopropyl-4-[(1-methylpiperidin-2-yl)methoxy]pyridin-2-yl]-1,2,4-oxadiazole] | < 5.00 | 7.72
CCN(CC)CC(C)Oc1cc(-c2noc(C(C)(C)C)n2)ncc1C1CC1 (stereo not drawn) [Example 101, 2-[2-(5-tert-butyl-1,2,4-oxadiazol-3-yl)-5-cyclopropylpyridin-4-yl]oxy-N,N-diethylpropan-1-amine] | < 5.00 | 6.85
CC(C)(C)c1nc(-c2cc(OCc3cccnc3)c(C3CC3)cn2)no1 [Example 119, 5-tert-butyl-3-[5-cyclopropyl-4-(pyridin-3-ylmethoxy)pyridin-2-yl]-1,2,4-oxadiazole] | < 5.00 | 7.33
CC(C)(C)c1nc(-c2cc(OCc3ccc(F)cc3)c(C3CC3)cn2)no1 [Example 53, 5-tert-butyl-3-[5-cyclopropyl-4-[(4-fluorophenyl)methoxy]pyridin-2-yl]-1,2,4-oxadiazole] | 7.26 | 8.85
C[C@H](Oc1cc(-c2nnc(C(C)(C)C)o2)ncc1C1CC1)C(F)(F)F [Example 120, 2-tert-butyl-5-[5-cyclopropyl-4-[(2S)-1,1,1-trifluoropropan-2-yl]oxypyridin-2-yl]-1,3,4-oxadiazole] | < 5.00 | 7.20
